Assay results as given in patent publication US10906880B2, “Kind of isothiazole oxime ether-containing strobilurin derivatives and its preparation methods and application” (priority 2016, dated 2021).
Where two headings read alike, the source gives them in different places.

Columns and labels:
[1] = test system: Phytophthora infestans (Mont) de Bary; experiment: microbe, parasite or virus in culture; assay type: cell-based; settings: for inhibition at 50 µg/mL: Phytophthora infestans, read-out: Fungicidal activity inhibition, PI, 50 μg/mL, P. infestans (Mont.) de Bary
[2] = test system: Cercospora arachidicola; experiment: Fungicide activity, mycelial growth inhibition on PDA plate; assay type: cell-based; settings: Mycosphaerella arachidis, read-out: Fungicidal activity inhibition, CA
[3] = test system: TMV; experiment: Anti-TMV activity on tobacco, curative mode; assay type: in vivo, tobacco mosaic virus; settings: for inhibition at 100 µg/mL: Tobacco mosaic virus, read-out: Anti-TMV activity inhibition, Curative effect
[4] = test system: Rhizoctonia cerealis; experiment: Fungicide activity, mycelial growth inhibition on PDA plate; assay type: cell-based; settings: Ceratobasidium cereale, read-out: Fungicidal activity inhibition, RC
[5] = test system: Physalospora piricola; experiment: Fungicide activity, mycelial growth inhibition on PDA plate; assay type: cell-based; settings: 50 μg/mL, P. piricola; read-out: Fungicidal activity inhibition, PP
[6] = test system: Alternaria solani; experiment: as above; assay type: cell-based; settings: Alternaria solani, read-out: Fungicidal activity inhibition, AS
[7] = test system: Sclerotinia sclerotiorum; experiment: as above; assay type: cell-based; settings: Sclerotinia sclerotiorum, read-out: Fungicidal activity inhibition, SS
[8] = test system: Botrytis cinerea; experiment: as above; assay type: cell-based; settings: Botrytis cinerea, read-out: Fungicidal activity inhibition, BC
[9] = test system: Pellicularia sasakii; experiment: as above; assay type: cell-based; settings: 50 μg/mL, P. sasakii; read-out: Fungicidal activity inhibition, PS
[10] = test system: TMV; experiment: Anti-TMV activity on tobacco, protection mode; assay type: in vivo, tobacco mosaic virus; settings: Tobacco mosaic virus, 100 μg/mL, read-out: Anti-TMV activity inhibition, Protection effect

SMILES	inhibition at 50 µg/mL [1]	inhibition at 50 µg/mL ([2]; 50 μg/mL, C. arachidicola)	inhibition at 50 µg/mL [2]	inhibition at 100 µg/mL ([3]; 100 μg/mL, tobacco)	inhibition at 50 µg/mL ([4]; 50 μg/mL, R. cerealis)	melting point	inhibition at 50 µg/mL [5]	inhibition at 50 µg/mL ([6]; 50 μg/mL, A. solani)	inhibition at 50 µg/mL [6]	inhibition at 50 µg/mL ([7]; 50 μg/mL, S. sclerotiorum)	inhibition at 50 µg/mL [7]	inhibition at 50 µg/mL ([8]; 50 μg/mL, B. cinerea)	inhibition at 50 µg/mL [9]	inhibition at 100 µg/mL [10]	Anti-TMV activity inhibition, Curative effect ([3]; 100 μg/mL, tobacco)	inhibition at 50 µg/mL [4]	Fungicidal activity inhibition, PI ([1]; 50 μg/mL, P. infestans (Mont.) de Bary)	inhibition at 50 µg/mL [8]	inhibition at 100 µg/mL [3]
CO/C=C(/C(=O)OC)c1ccccc1CO/N=C(\C)c1snc(Cl)c1Cl [CL03-49]	> 40%	66.7%	> 30%	> 30%	100%	100 to 102 °C	78.3%	42.9%	> 30%	80%	> 40%	100%	64.7%	35.9 ± 0.63%					
CO/C=C(/C(=O)OC)c1ccccc1CO/N=C/c1snc(Cl)c1Cl [CL03-50]	> 40%	66.7%	> 30%	> 30%	100%	61 to 63 °C	78.3%	57.1%	> 30%	53.3%	> 40%	100%	64.7%	> 40%	48.32 ± 5.88%				
CO/C=C(/C(=O)OC)c1ccccc1CO/N=C(\N)c1snc(Cl)c1Cl [CL04-03]	> 40%	100%		> 30%	100%	105 to 107 °C	87%	57.1%	> 30%	100%		100%	58.8%	35.1 ± 0.39%					
CO/C=C(/C(=O)OC)c1ccccc1CO/N=C(\C)CC(O)c1snc(Cl)c1Cl (stereo not shown) [CL04-04-A]	> 40%	75%		19.1 ± 2.13%	100%	36 to 38 °C	73.9%	85.7%		90%		100%	52.9%						
CO/N=C(/C(=O)OC)c1ccccc1CO/N=C/c1snc(Cl)c1Cl [CL04-15B]		91.7%		27 ± 4.13%	98.2%	88 to 90 °C	62.1%	100%		90%		100%	69.2%	14.7 ± 2.73%					
CO/N=C(/C(=O)OC)c1ccccc1CO/N=C(\N)c1snc(Cl)c1Cl [CL04-15C]		75%		1.52 ± 0.62%	89.1%	104 to 106 °C	71.2%	52.9%	> 30%	98%		100%	76.9%	25.1 ± 4.33%		> 50%			
C#CCNC(=O)/C(=N/OC)c1ccccc1CO/N=C(C)/C=C/c1snc(Cl)c1Cl [CL04-32B]		52%	> 30%		100%	92 to 93 °C	64.9%	41%	> 30%	80%	> 40%	47.4%	78.4%	23.4 ± 1.02%			100%	> 45%	
CNCC(=O)N[C@@H](CO)C(=O)N[C@H]1[C@H](O)[C@@H](O)[C@H](n2ccc(N)nc2=O)O[C@@H]1C(N)=O [Ningnanmycin, reference compound]																			74.1 ± 2.04%
